Experimental data taken from ChEMBL document CHEMBL1201862, “PubChem BioAssay data set” (2004).
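The compound was tested at five concentrations on cells cultured in 96-well plates, with a 48-hour exposure period. GI50 = concentration required for 50% inhibition of growth.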 Active and inactive are the calls of the source. Cut-off read from the data, not from the text of the source: active = GI50 up to about 1.1 µM and inactive = higher.

Legend:
Assay in all cases: NCI-60 cell line screen, 48 h
SK-MEL-5 = tested on: SK-MEL-5
UACC-257 = tested on: UACC-257
HT-29 = tested on: HT-29
OVCAR-3 = tested on: OVCAR-3
PC-3 = tested on: PC-3
NCI-H23 = tested on: NCI-H23
A549 = tested on: A549
NCI-H522 = tested on: NCI-H522
TK-10 = tested on: TK-10
SK-MEL-28 = tested on: SK-MEL-28
786-0 = tested on: 786-0
SN12C = tested on: SN12C
NCI-H460 = tested on: NCI-H460
SNB-75 = tested on: SNB-75
NCI-H226 = tested on: NCI-H226
IGROV-1 = tested on: IGROV-1
MOLT-4 = tested on: MOLT-4
MCF7 = tested on: MCF7
A498 = tested on: A498

Structure (SMILES) | GI50 (SK-MEL-5) | GI50 (UACC-257) | GI50 (HT-29) | GI50 (OVCAR-3) | GI50 (PC-3) | GI50 (NCI-H23) | GI50 (A549) | GI50 (NCI-H522) | GI50 (TK-10) | GI50 (SK-MEL-28) | GI50 (786-0) | GI50 (SN12C) | GI50 (NCI-H460) | GI50 (SNB-75) | GI50 (NCI-H226) | GI50 (IGROV-1) | GI50 (MOLT-4) | GI50 (MCF7) | GI50 (A498)
Cc1cc2nc3n(c2cc1C)C(c1c(F)cccc1F)SC3 (stereo unspecified) | 11 µM (inactive) | 30.7 µM (inactive) | 18.5 µM (inactive) | 35.3 µM (inactive) | 17.7 µM (inactive) | 16.5 µM (inactive) | 23.7 µM (inactive) | 21.3 µM (inactive) | 46.8 µM (inactive) | 19.1 µM (inactive) | 19.3 µM (inactive) | 19.5 µM (inactive) | 18.1 µM (inactive) | 11.6 µM (inactive) | 10.5 µM (inactive) | > 10 µM (inactive) | 13.7 µM (inactive) | 17.5 µM (inactive) | –
CC(=O)OCCOCn1c2c(c(=O)[nH]c1=O)CCC2 | > 100 µM (inactive) | > 100 µM (inactive) | > 100 µM (inactive) | > 100 µM (inactive) | > 100 µM (inactive) | > 100 µM (inactive) | > 100 µM (inactive) | > 100 µM (inactive) | > 100 µM (inactive) | > 100 µM (inactive) | > 100 µM (inactive) | > 100 µM (inactive) | – | > 100 µM (inactive) | > 100 µM (inactive) | > 100 µM (inactive) | > 100 µM (inactive) | > 100 µM (inactive) | –
Cc1ccccc1NC(=O)C(=O)CC(=O)c1sc(Nc2ccccc2[N+](=O)[O-])nc1C | 27.8 µM (inactive) | 29.9 µM (inactive) | 26.7 µM (inactive) | 32 µM (inactive) | 28.1 µM (inactive) | 36.8 µM (inactive) | 34.8 µM (inactive) | 27.7 µM (inactive) | 25.7 µM (inactive) | 25.7 µM (inactive) | 21.5 µM (inactive) | 50.6 µM (inactive) | 27.4 µM (inactive) | – | 34.8 µM (inactive) | 41.4 µM (inactive) | 51.1 µM (inactive) | 23.9 µM (inactive) | –
C=CCc1cccc2cc(C(N)=O)c(=N)oc12 | > 100 µM (inactive) | > 100 µM (inactive) | > 100 µM (inactive) | > 100 µM (inactive) | > 100 µM (inactive) | > 100 µM (inactive) | > 100 µM (inactive) | – | – | > 100 µM (inactive) | 73.8 µM (inactive) | > 100 µM (inactive) | > 100 µM (inactive) | 54.7 µM (inactive) | 43.9 µM (inactive) | 23.8 µM (inactive) | > 100 µM (inactive) | – | 77.3 µM (inactive)
Cc1cc(O)c(C(c2cccnc2)c2c(O)cc(C)[nH]c2=O)c(=O)[nH]1 | > 100 µM (inactive) | > 100 µM (inactive) | > 100 µM (inactive) | > 100 µM (inactive) | > 100 µM (inactive) | > 100 µM (inactive) | > 100 µM (inactive) | > 100 µM (inactive) | > 100 µM (inactive) | > 100 µM (inactive) | > 100 µM (inactive) | > 100 µM (inactive) | > 100 µM (inactive) | – | – | > 100 µM (inactive) | > 100 µM (inactive) | > 100 µM (inactive) | –
c1ccc(C2CC(N3CCOCC3)=Nc3ccccc3N2)cc1 (stereo unspecified) | > 100 µM (inactive) | > 100 µM (inactive) | > 100 µM (inactive) | > 100 µM (inactive) | > 100 µM (inactive) | > 100 µM (inactive) | > 100 µM (inactive) | > 100 µM (inactive) | > 100 µM (inactive) | > 100 µM (inactive) | > 100 µM (inactive) | > 100 µM (inactive) | > 100 µM (inactive) | – | > 100 µM (inactive) | 93.8 µM (inactive) | 70.6 µM (inactive) | – | > 100 µM (inactive)
Cn1c(=O)c2nc(CCNC(=O)c3ccccc3)[nH]c2n(C)c1=O | > 100 µM (inactive) | > 100 µM (inactive) | > 100 µM (inactive) | > 100 µM (inactive) | > 100 µM (inactive) | > 100 µM (inactive) | > 100 µM (inactive) | > 100 µM (inactive) | > 100 µM (inactive) | > 100 µM (inactive) | > 100 µM (inactive) | > 100 µM (inactive) | > 100 µM (inactive) | > 100 µM (inactive) | > 100 µM (inactive) | > 100 µM (inactive) | > 100 µM (inactive) | – | > 100 µM (inactive)
O=C1NC(=S)NC(=O)C1=C/C=C/c1ccc([N+](=O)[O-])cc1 | 19.3 µM (inactive) | 12.7 µM (inactive) | 23.8 µM (inactive) | 14.3 µM (inactive) | 16.9 µM (inactive) | 13.9 µM (inactive) | 21.1 µM (inactive) | – | 5.45 µM (inactive) | 3.03 µM (inactive) | 14.2 µM (inactive) | 15.8 µM (inactive) | 27 µM (inactive) | 19.2 µM (inactive) | 19.1 µM (inactive) | 12.2 µM (inactive) | 3.04 µM (inactive) | 14 µM (inactive) | –
c1cc(CN2CCNCCNCCNCC2)cc(CN2CCNCCNCCNCC2)c1 | > 100 µM (inactive) | > 100 µM (inactive) | > 100 µM (inactive) | > 100 µM (inactive) | > 100 µM (inactive) | > 100 µM (inactive) | > 100 µM (inactive) | – | > 100 µM (inactive) | > 100 µM (inactive) | > 100 µM (inactive) | > 100 µM (inactive) | > 100 µM (inactive) | > 100 µM (inactive) | > 100 µM (inactive) | > 100 µM (inactive) | > 100 µM (inactive) | > 100 µM (inactive) | –
CN(C)c1cccc2c(S(=O)(=O)NCCN)cccc12 [DANSYL ETHYLENEDIAMINE] | 46.2 µM (inactive) | > 100 µM (inactive) | > 100 µM (inactive) | > 100 µM (inactive) | > 100 µM (inactive) | > 100 µM (inactive) | > 100 µM (inactive) | > 100 µM (inactive) | – | > 100 µM (inactive) | > 100 µM (inactive) | > 100 µM (inactive) | > 100 µM (inactive) | 4.74 µM (inactive) | > 100 µM (inactive) | 33.7 µM (inactive) | > 100 µM (inactive) | – | 23 µM (inactive)
CCCCCCCCCCCCCCCCCC(=O)OCC(COC(=O)CCCN)OC(=O)CCCN (stereo unspecified) | – | 19.6 µM (inactive) | 16.1 µM (inactive) | 19.3 µM (inactive) | 17.1 µM (inactive) | 16.4 µM (inactive) | 4.1 µM (inactive) | 21 µM (inactive) | 20.8 µM (inactive) | 19.9 µM (inactive) | 17.3 µM (inactive) | 17.8 µM (inactive) | 14.9 µM (inactive) | > 100 µM (inactive) | 20.6 µM (inactive) | 2.91 µM (inactive) | 24.8 µM (inactive) | 24.4 µM (inactive) | –
COc1ccc(-c2ncn(C[Si](C)(C)C)c2-c2ccc(OC)cc2)cc1 | 2.54 µM (inactive) | 4.93 µM (inactive) | 2.84 µM (inactive) | – | 4.63 µM (inactive) | 3.87 µM (inactive) | 4.31 µM (inactive) | 4.28 µM (inactive) | 7.24 µM (inactive) | 2.33 µM (inactive) | 5.15 µM (inactive) | 11 µM (inactive) | 3.77 µM (inactive) | 13.1 µM (inactive) | 4.8 µM (inactive) | 6.21 µM (inactive) | 0.863 µM (active) | 8.59 µM (inactive) | –
CCCCc1ccc(Nc2nc(Cl)c3ncn(C4CC(Oc5ccc(C)cc5)C(COc5ccc(C)cc5)O4)c3n2)cc1 (stereo unspecified) | > 100 µM (inactive) | > 100 µM (inactive) | > 100 µM (inactive) | > 100 µM (inactive) | – | > 100 µM (inactive) | > 100 µM (inactive) | > 100 µM (inactive) | > 100 µM (inactive) | – | > 100 µM (inactive) | > 100 µM (inactive) | – | > 100 µM (inactive) | > 100 µM (inactive) | > 100 µM (inactive) | > 100 µM (inactive) | > 100 µM (inactive) | > 100 µM (inactive)
CNC(=S)N/N=C(\C)c1cc(OC)ccc1O | > 44.3 µM (inactive) | > 100 µM (inactive) | 0.951 µM (active) | > 100 µM (inactive) | > 96.4 µM (inactive) | > 100 µM (inactive) | > 100 µM (inactive) | 3.9 µM (inactive) | – | > 100 µM (inactive) | > 100 µM (inactive) | > 100 µM (inactive) | > 100 µM (inactive) | > 95.3 µM (inactive) | – | > 64.9 µM (inactive) | > 65.6 µM (inactive) | – | > 100 µM (inactive)
NC(=O)C[S+]([O-])CC(N)C(=O)O (stereo unspecified) | > 100 µM (inactive) | > 100 µM (inactive) | > 100 µM (inactive) | > 100 µM (inactive) | > 100 µM (inactive) | > 100 µM (inactive) | > 100 µM (inactive) | > 100 µM (inactive) | > 100 µM (inactive) | > 100 µM (inactive) | > 100 µM (inactive) | > 100 µM (inactive) | > 100 µM (inactive) | > 100 µM (inactive) | > 100 µM (inactive) | > 100 µM (inactive) | > 100 µM (inactive) | – | > 100 µM (inactive)
N/C(CSCCSC/C(N)=N/O)=N\O | > 100 µM (inactive) | – | > 100 µM (inactive) | > 100 µM (inactive) | > 100 µM (inactive) | > 100 µM (inactive) | > 100 µM (inactive) | > 100 µM (inactive) | > 100 µM (inactive) | > 100 µM (inactive) | > 100 µM (inactive) | > 100 µM (inactive) | > 100 µM (inactive) | > 100 µM (inactive) | > 100 µM (inactive) | > 100 µM (inactive) | > 100 µM (inactive) | > 100 µM (inactive) | –
